Laboratory results reported in patent publication US20240208972A1, “LRRK2 INHIBITORS AND USES THEREOF” (NEURON23, INC., priority 2022, published 2024).
pIC50: −log10 of the molar value.

How the values were obtained:
[1] = biological target: T1, wt human LRRK2, catalytic site (Homo sapiens, UniProt Q5S007); experiment: TR-FRET LanthaScreen Tb Kinase Activity Assay, LRRK2 kinase inhibition; type: biochemical; conditions: 2 nM wt human LRRK2, 400 nM peptide, 38 μM ATP
T1 construct: wt human LRRK2, catalytic site, catalytic site (ThermoFisher/USA); purchased ThermoFisher
Summary of the method: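 TR-FRET LanthaScreen format: 2 nM wt human LRRK2 catalytic domain with 400 nM fluorescein-ERM (LRRKtide) and 38 μM ATP in Kinase Buffer A, after 15 min compound preincubation. Reaction 120 min at RT, then EDTA plus Tb-anti-pLRRKtide antibody for 60 min; emission ratios analysed per kit protocol.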

[2] = Brain penetration (Kp,uu) in CD-1 mice, with plasma and brain tissue binding by equilibrium dialysis; type: in vivo; conditions: mouse, brain and plasma (unbound), male CD-1 mice, single IV bolus 1 mg/kg
Method: The compounds disclosed herein were tested on CD-1 mice for brain penetration (Kp, uu) according to the following procedures.
Nine male CD-1 mice were administered TEST COMPOUND by single intravenous bolus administration at 1 mg/kg. The vehicle used for IV study was 5% DMSO, 5% solutol, 20% PEG300 and 70% water. The detailed dosing and sampling regimens are described in the following tables.
1.0 mg of test compound was accurately weighed into a glass vial, and slowly added with 104 μL of DMSO and vortexed for 1 min. Then 104 μL of solutol was added and vortexed for 1 min. Then 415 μL of PEG300 was added and vortexed for 1 min. Then 1000 μL of water was added and vortexed for 1 min. Finally, 451 μL of water was added and vortexed for 1 min to get a clear solution.
The body weights were in the range from 28.81 to 31.25 g for males on the first dosing day. All animals received a single intravenous bolus administration of TEST COMPOUND from the tail vein.
Each blood collection (about 0.06 mL per time point) was performed from saphenous vein of each animal into pre-chilled commercial K2-EDTA tubes as anti-coagulant and placed on wet ice until centrifugation.
Plasma samples were then prepared by centrifuging the blood samples at approximately 4° C., 3200×g for 10 minutes. All plasma samples were then quickly frozen over dry ice and kept at −60° C. or lower until LC-MS/MS analysis.
Brain tissue was homogenized using homogenizing buffer (15 mM PBS (pH7.4): MeOH=2:1) at the ratio of 1:9 (1 g tissue with 9 mL buffer, the dilution ratio is 10). The tissue homogenate was kept at −60° C. or lower until LC-MS/MS analysis.
The concentrations of TEST COMPOUND in plasma and brain were determined by using an LC-MS/MS method.
The plasma and brain concentration of TEST COMPOUND in study animals was subjected to a non-compartmental pharmacokinetic analysis by using the Phoenix WinNonlin software program (version 6.3 or above, Pharsight). The linear/log trapezoidal rule was applied in obtaining the PK parameters.
Individual plasma and brain concentration values that were below the lower limit of quantitation (LLOQ) were excluded from the PK parameter calculation. The nominal dose levels and nominal sampling times were used in the calculation of all pharmacokinetic parameters.
Mouse Kp, uu=(% free in mouse brain*concentration in mouse brain)/(% free in mouse plasma*concentration in mouse plasma)
The dialysis apparatus was assembled according to the manufacturer's instruction. Each Cell was filled with 120 μL of spiked plasma sample and dialyzed against equal volume of dialysis buffer (PBS). The assay was performed in duplicate. The dialysis plates were sealed and incubated in an incubator at 37° C. with 5% CO2 and rotated at 100 rpm for 6 hours. At the end of incubation, the seals were removed and 50 μL of samples from both buffer and plasma chambers were transferred to a 96-well plate.
All calculations were carried out using Microsoft Excel. The concentrations of test compound and control compound in the buffer and plasma chambers were determined from peak area ratios (PAR) of analyte to internal standard. Protein binding (% unbound and % bound) and recovery (% recovery) of test and control compounds was calculated as follows:
• 1. Thawing of the frozen brain (stored at −80° C.) • Frozen brain tissue was thawed at room temperature in a bath. Only brain tissue was used that was thawed no more than once. • 2. Preparation of brain tissue homogenate • Brain tissue homogenate was prepared by diluting one quantity (g) of the whole brain tissue with three volumes (mL) of buffer (PBS, pH 7.4) and homogenizing the mixture using a tissue homogenizer. Brain tissue homogenate was frozen at −80° C. for later use/comparison. • 3. Preparation of working solutions • The working solutions of test compound and the control compound propranolol were prepared in dimethyl sulfoxide (DMSO) at the concentration of 200 μM. […]

T1 sequence (Q5S007 1879-2138 limits assumed): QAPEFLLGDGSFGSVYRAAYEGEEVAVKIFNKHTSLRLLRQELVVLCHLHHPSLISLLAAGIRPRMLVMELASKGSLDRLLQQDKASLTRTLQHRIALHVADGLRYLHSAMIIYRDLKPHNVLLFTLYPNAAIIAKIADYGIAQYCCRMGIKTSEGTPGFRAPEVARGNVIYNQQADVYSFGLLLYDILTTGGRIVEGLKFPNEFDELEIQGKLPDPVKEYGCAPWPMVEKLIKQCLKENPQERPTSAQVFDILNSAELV

SMILES	pIC50 [1]	Kp uu [2]
[2H]C([2H])([2H])c1n[nH]c2c1N=C(c1c(F)cccc1F)Nc1cnc(N3CCOCC3)cc1-2 [Example 32, 4-[8-(2,6-difluorophenyl)-5-(trideuteriomethyl)-3,4,7,9,12-pentazatricyclo[8.4.0.02,6]tetradeca-1(10),2(6),4,7,11,13-hexaen-13-yl]morpholine]	> 8.70	0.2 to 0.4
[2H]C([2H])([2H])c1n[nH]c2c1N=C(c1c(F)cccc1F)Nc1ccc(N3CCOCC3)cc1-2 [Example 33, 4-[5-(2,6-difluorophenyl)-3-(trideuteriomethyl)-1,6-dihydropyrazolo[4,3-d][1,3]benzodiazepin-9-yl]morpholine]	> 8.70	0.2 to 0.4
[2H]C([2H])([2H])c1n[nH]c2c1N=C(c1c(F)cccc1F)Nc1ccc(N3CCO[C@@H](C)C3)cc1-2 [Example 34, (2S)-4-[5-(2,6-difluorophenyl)-3-(trideuteriomethyl)-1,6-dihydropyrazolo[4,3-d][1,3]benzodiazepin-9-yl]-2-methyl-morpholine]	> 8.70	0.2 to 0.4
Cc1n[nH]c2c1N=C(c1c(F)cccc1F)Nc1c-2cc(N2CCO[C@@H](C)C2)nc1C [Example 40, (S)-4-(5-(2,6-difluorophenyl)-3,7-dimethyl-1,6-dihydropyrazolo[4,3-d]pyrido[4,3-f][1,3]diazepin-9-yl)-2-methylmorpholine]	> 8.70	< 0.2
Cc1n[nH]c2c1N=C(c1c(F)cccc1F)N1CCc3nc(N4CCOCC4)cc-2c31 [Example 42, 4-[8-(2,6-difluorophenyl)-5-methyl-3,4,7,9,13-pentazatetracyclo[7.6.1.02,6.012,16]hexadeca-1(16),2(6),4,7,12,14-hexaen-14-yl]morpholine]	> 8.70	0.2 to 0.4
Cc1n[nH]c2c1N=C(c1c(F)cccc1F)Nc1c-2cc(N2CC3(CCOCC3)C2)nc1C [Example 47, 2-[8-(2,6-difluorophenyl)-5,11-dimethyl-3,4,7,9,12-pentazatricyclo[8.4.0.02,6]tetradeca-1(10),2(6),4,7,11,13-hexaen-13-yl]-7-oxa-2-azaspiro[3.5]nonane]	> 8.70	0.2 to 0.4
Cc1n[nH]c2c1N=C(c1c(F)cccc1F)Nc1cnc(N3CCO[C@@H](C(F)(F)F)C3)cc1-2 [Example 55, (2R)-4-[8-(2,6-difluorophenyl)-5-methyl-3,4,7,9,12-pentazatricyclo[8.4.0.02,6]tetradeca-1(10),2(6),4,7,11,13-hexaen-13-yl]-2-(trifluoromethyl)morpholine]	> 8.70	< 0.2
Cn1nccc1-c1cc2c(cn1)NC(c1c(F)cccc1F)=Nc1c(Cl)n[nH]c1-2 [Example 59, 3-chloro-5-(2,6-difluorophenyl)-9-(1-methyl-1H-pyrazol-5-yl)-1,6-dihydropyrazolo[4,3-d]pyrido[4,3-f][1,3]diazepine]	> 8.70	< 0.2
